These results are taken from article PMC10377753, “Pharmacokinetic and pharmacodynamic properties of polymyxin B in Escherichia coli and Klebsiella pneumoniae murine infection models” (Journal of Antimicrobial Chemotherapy, 2023).

Structures can show the parent of a compound that is named as a salt. Bridge positions count the residues as written; N and C are the ends. Square brackets hold non-standard residues; d marks the D form. Peptide text beside a SMILES is read from it. * marks the point of attachment. X1 = CC[C@H](C)CCCCC(=O)*; Dab = NCC[C@H](N)C(=O)O

Data set [1] can be described thus: Epithelial lining fluid (ELF) concentration from BAL, urea correction. It is filed as in vivo. The note with it: lung-infected mice. The protocol:
Bronchoalveolar lavage (BAL) was performed immediately after blood collection. The trachea was exposed by a ventral vertical incision in the neck for insertion of a cannula. Lungs were instilled two times with 1 mL of sterile saline, and the fluid was recovered immediately. The recovered lavages were pooled, directly placed on ice, and subsequently stored at −80°C.
By taking BAL fluid samples and a plasma sample at the same timepoint, the concentrations in ELF could be determined. The ratio of the urea concentration in BAL to the concentration in plasma was used to determine the ELF concentration.[17] In short, polymyxin B concentration in ELF was calculated by multiplying the polymyxin B concentration in the BAL fluid by the ratio of the urea concentration in the plasma and BAL fluid: [polymyxin B]ELF = [polymyxin B]BAL × ([urea]Plasma/[urea]BAL). Urea concentrations were measured with an enzymatic assay (QuantiChrom urea assay kit; DIUR-100; BioAssay Systems, Hayward, CA, USA).
Polymyxin B concentrations in plasma, BAL and ultrafiltrates were determined by a validated LC-MS/MS method,[18] with a lower limit of quantification (LOQ) of 0.2 mg/L for plasma and 0.05 mg/L for BAL fluid and ultrafiltrates. […] The residues were dissolved in 0.1 mL of 0.1% formic acid in water and analysed by LC-MS/MS. […] Polymyxin B was analysed on an XBridge C18 column (5 µm, 2.1 × 150 mm; Waters). […]

The next data set concerns plasma proteins. The note with it: clinical studies; cited from earlier work. The protocol:
A previously published population PK model[19] and Monte Carlo simulations was used to estimate the fAUCs of 5000 patients treated with 200 mg q24h (MicLab 2.71) taking into account protein-binding rates ranging from 36% to 98% as previously reported.[20–23] The PTA was calculated for isolates with MICs ranging from 0.25 to 4 mg/L. || In clinical studies, the protein binding of polymyxin B is much higher than reported in mice, with protein binding in plasma up to 99% for polymyxin B.[22],[26],[27] This applies to colistin as well.[5],[28] Therefore, the PK/PD targets based on the unbound fraction are necessary for translating PK/PD data of polymyxin B to the clinic.

Another data set deals with E. coli isolates. The experiment in a line: Dose-response study, thigh infection model, summary over E. coli isolates. The format is in vivo, Escherichia coli. As to the method: Experiments were carried out in the Erasmus Laboratory Animal Science Centre in Rotterdam, The Netherlands in accordance with the EU Animal Directive 2010/63/EU 2010 directive[14] (licence number AVD101002016702) as described before,[15] with approval of the institutional Animal Welfare Body. Outbred female CD-1 mice obtained from Charles River Germany, weighing 20–25 g, 7–8 weeks old, were used in the experiments. The mice were housed under standard conditions with drink and feed supplied ad libitum.
Mice were rendered neutropenic by intraperitoneal injection of cyclophosphamide of 150 and 100 mg/kg, 4 days and 1 day before infection, respectively. On the day of infection, an overnight culture of the bacteria was diluted in fresh CAMHB and incubated at 37°C for 1 or 2 h depending on the growth rate of the strain. After incubation the inoculum was diluted in CAMHB or saline for the thigh and lung infection model, respectively, in order to obtain approximately 5.0 × 10^7 cfu/mL. Mice were then infected intramuscularly in each thigh (thigh infection model) or intranasally under isoflurane anaesthesia (lung infection model), with 0.05 mL of inoculum containing approximately 2.5 × 10^6 bacteria. Analgesia was given in the form of buprenorphine directly after infection, every 12 h.
For dose–response studies, a 6 hourly dosing regimen of 1–32 mg/kg was studied in the thigh infection model. Mice were infected with E. coli […], 15, 51 or 71 or K. pneumoniae ATCC 43816, 17, 58 or 74.
Animals were humanely euthanized 24 h (t = 24 h) after the first dose, unless the welfare of the animals necessitated earlier termination, following animal welfare regulations. Excised thighs were transferred to a pre-cooled 14 mL polypropylene tube containing 2 mL of PBS and were homogenized using a T25 ULTRA-TURRAX (IKA-Werke GmbH & Co, Staufen, Germany). A 10-fold dilution series was prepared and 3 × 10 μL was plated per dilution. The following day, colonies were counted and the number of cfu per thigh was calculated.
The drug effect was determined by the difference between the log10 cfu values at t = 0 h (mean value of two mice) and t = 24 h (value of individual mice) expressed as Δlog10 cfu. The fAUC/MIC, fCmax/MIC and %fT>MIC were determined based on the simulated time–concentration profiles over 24 h as derived in MicLab 2.71 (MEDIMATICS, Maastricht, The Netherlands) using 200 points per dosing interval.
A sigmoid maximum effect (Emax) model was fitted to the PK/PD index versus Δlog10 cfu data by non-linear regression, and static or a 1 log or 2 log kill effect were determined using GraphPad Prism 8.0 (GraphPad, Inc., San Diego, CA, USA). A two-tailed unpaired t-test was performed in GraphPad Prism 8.0 to determine if there was a significant difference in the fAUC/MIC targets correlating with a static or a 1 log or 2 log decline, between E. coli and K. pneumoniae isolates.

The mark [2] stands for this setting: two E. coli isolates in which 1 log kill was found.

For `CC[C@H](C)CCCCC(=O)N[C@@H](CCN)C(=O)N[C@H](C(=O)N[C@@H](CCN)C(=O)N[C@H]1CCNC(=O)[C@H]([C@@H](C)O)NC(=O)[C@H](CCN)NC(=O)[C@H](CCN)NC(=O)[C@H](CC(C)C)NC(=O)[C@@H](Cc2ccccc2)NC(=O)[C@H](CCN)NC1=O)[C@@H](C)O` [polymyxin B, Polymyxin B sulphate salt] (X1-[Dab]T[Dab][Dab][Dab][dF]L[Dab][Dab]T; lactam 4-C), the “Concentration in ELF” value in data set [1] (64 mg/kg s.c., BAL, urea correction, data not shown) is given as “Low levels”. In data set [1] (other doses (1, 4, 16 mg/kg s.c.), LOQ 0.05 mg/L for BAL fluid), the “Concentration in ELF” value was “below the LOQ”. The “Protein binding in plasma” value with plasma proteins was “up to 99%”. In addition, the “Isolates in which 1 log kill was found” value in the data set with E. coli isolates (E. coli isolates, mouse thigh infection) is 2/4. In the data set with E. coli isolates (average of four E. coli isolates, mouse thigh infection, q6h), the “Target value of fAUC/MIC, static effect, average” value is given as 64.3. Further, the “Target value of fAUC/MIC, static effect, median” value in the data set on E. coli isolates (median of four E. coli isolates, mouse thigh infection, q6h) was 63.5. Further, in the data set with E. coli isolates (range over four E. coli isolates, mouse thigh infection, q6h), the “Target value of fAUC/MIC, static effect, range” value was 27.5–102.6. Moreover, in the data set on E. coli isolates (setting [2]), the “fAUC/MIC for 1 log kill, median” value is reported as 50.6 and the “fAUC/MIC for 1 log kill, range” value is on record as 46.8–54.5.
